# Results published in patent publication US20050163781A1, “Tissue adhesion formation control” (priority 2002, published 2005).
# Assays:
# adhesion formation [1] = settings: oxygen added to CO2 pneumoperitoneum, intubated mice
# Protocol: In adult, female, NMRI (Naval Medical Research Institute) mice adhesions were induced by laparoscopy and evaluated by laparotomy under microscopic view in order to assess similar variables than in the rabbit model. […] The endoscope with an outer sheath for insufflation (total diameter 3.2 mm) was introduced caudal to the xyphoides by open laparoscopy. Survival after different insufflation pressures and duration of pneumoperitoneum was evaluated in non-intubated and intubated mice. […] For the induction of adhesions, after the establishment of the pneumoperitoneum, the 2nd and 3rd ports (14-gauge catheters) were introduced in the left and right flanks under laparoscopic vision. Standardised, opposing, linear lesions in the anti-mesenteric border of uterine horns and in the pelvic sidewalls were performed by monopolar coagulation. After 7 or 28 days adhesions were evaluated by scoring extent, type and tenacity and by a quantitative measurement. In non-intubated mice CO2 pneumoperitoneum at 2.5 cm of water was maintained for 5, 15, 30, 60 and 120 min to evaluate the effect of duration of pneumoperitoneum. […] To confirm this effect and to evaluate the effect of desiccation due to the flow rate though the animal, pneumoperitoneum was maintained for 5 and 60 min without flow and for 60 min with 1 and 10 ml/min of flow rate. […]
# adhesion formation [2] = settings: 0, 1, 2.5, 5, 10 and 20% of oxygen in CO2 pneumoperitoneum for 1 hour, laser lesions, rabbits
smiles,measurement,setting,value
O=O [oxygen],oxygen proportion giving half maximal reduction of adhesions,adhesion formation [1],around 1.5 % of oxygen
same,oxygen proportion required for maximal response (reduction of adhesions),adhesion formation [1],2-3 % of oxygen
same,oxygen proportion at which maximal effect (decrease of adhesion formation) was observed,adhesion formation [2],5 % of oxygen
